Experimental data taken from US20090047335A1, “Anti-angiogenic peptides and methods of use thereof” (SOPHERION THERAPEUTICS, INC., priority 2004, published 2009).
Values joined by “and” are separate entries in the source; they are usually repeats but may differ in a detail not shown here. Identical values can stand only once.

Tests used:
[1] = tested on: human breast cancer MDA-MB231 tumor xenografts; test: Human breast cancer MDA-MB231 tumor xenografts in nude mice: caliper and actual tumor weight, necrotic score; assay type: in vivo; details: Docetaxel group
Method: The peptides of the invention were tested in an in vivo model of anti-tumor activity. This model compares the growth of the human breast cancer MDA-MB231 tumor xenografts in nude mice treated with 10 mg/kg or 20 mg/kg daily ip of ST100,059, docetaxel or saline.
Female nude mice (nu/nu) between 5 and 6 weeks of age weighing approximately 20 g were obtained from Harlan, Inc. Animals were implanted subcutaneously (s.c.) by trocar with fragments of human tumors harvested from s.c. grown tumors in nude mice hosts. When the tumors were approximately 60-75 mg in size (about 10-15 days following implantation), the animals were pair-matched into treatment and control groups. Each group contained 8-10 mice, each of which is ear-tagged and followed individually throughout the experiment.
The administration of drugs or controls began the day the animals were pair-matched with tumor size of about 70 mg (Day 1). Mice were weighed and tumor measurements were obtained using calipers twice weekly, starting on Day 1. These tumor measurements were converted to mg tumor weight by the standard formula, (W^2×L)/2. Upon termination of the experiment, the mice were weighed, sacrificed and their tumors were excised. The tumors were weighed, and the mean and medium tumor weight per group was calculated.
For each group, the table reports the caliper measurements and the actual tumor weights obtained as described above.

[2] = tested on: Mouse B16-F1 melanoma cells; test: Growth of subcutaneous B16 melanoma tumor in C57BL/6 mice; assay type: in vivo; design: unit not given beside the values; details: group average, Doxorubicin group
Method: The peptides of the invention were tested in an in vivo model of anti-tumor activity. This model compares the growth of subcutaneous B16 melanoma tumor either untreated or treated with either 20 mg/kg, 40 mg/kg, 100 mg/kg daily ip doses of ST100,059.
Male C57BL/6 mice were obtained with a mean body weight of 20±2 g. Mouse B16-F1 melanoma cells were implanted subcutaneously (5×10^5 cell per animal). Peptides (formulated in water) were administered ip daily starting the day after injection of cells. Tumors became palpable around 9 days after injection of the cells. Tumors were then measured every 2 days.

[3] = in vitro; assay type: in vitro ADME, bovine; details: serum
Method: A stock solution of 1 mM peptide dissolved in water was made. The stock was then diluted to 100 μM in either OptiMem medium+100 units/ml of penicillin and 100 μg/ml streptomycin sulfate+1% fetal bovine serum or in OptiMem+Pen/Strep+10% fetal bovine serum. The diluted samples were placed in a 24-well tissue culture plate in an incubator at 37 degrees. Aliquots of 50-100 μl were removed at 4, 6, 18, 24, 48 and 72 hrs and frozen at −70° C. until analysis.
Samples of 20 μl were separated on a C18 reverse phase column (4.8×250 mm) with a gradient of acetonitrile/water 0.1% TFA and analyzed using a single quad mass spectrometer. Singly or multiply charged peaks were detected depending on the mass of the peptide. Peptide degradation was determined in two ways: loss of peak area in the chromatogram produced using the mass spectrometer as the detector and loss of the main peak in the mass spectrum with simultaneous appearance of a peak(s) from a breakdown product.

[4] = tested on: bovine retinal endothelial cells (BRE); test: VEGF mediated survival/proliferation of BRE cells, WST-1 assay, peptides added at plating (before cells adhered); assay type: cell-based; details: VEGF 25 ng/ml, 72 h; for WST-1 induced colorimetric change measured at 440 nm, average: average of wells; for WST-1 induced colorimetric change measured at 440 nm: single wells, 1% FBS
Method: The anti-angiogenic activities of the peptides were tested by measuring the level of inhibition of VEGF mediated survival/proliferation of bovine retinal endothelial cells (BRE), a standard cell line used to test anti-angiogenic compounds. Cells were maintained in Cambrex EGM-2MV medium. On day one cells were starved for either 6 hours or overnight, and thereafter trypsinized and plated in a 96 well plate in 100 μl of Invitrogen OptiMem+1% fetal bovine serum. A 100 μl aliquot of Invitrogen OptiMem+1% fetal bovine serum was then added to the wells in addition to, where appropriate, VEGF to a final concentration of 25 ng/ml and the various peptides to final concentration of 12.5, 25, 50 and 100 μg/ml. After 72 hours incubation, the number of live cells in each well was determined using the WST-1 assay (Roche).
The experiment was repeated using higher concentrations of peptide, to a maximum concentration of 200 μg/ml. This required the addition of a substantial amount of water (the peptides are soluble in water and are maintained as stock solution of 2 mg/ml). Therefore, we tested whether the addition of water itself would have any inhibitory effects. As before, BRE were maintained in Cambrex EGM-2MV medium. On day one, cells were starved for either 6 hours or overnight, and thereafter trypsinized and plated in a 96 well plate in 100 μl of OptiMem+1% fetal bovine serum. A 100 μl aliquot of OptiMem+1% fetal bovine serum was then added to the wells, further containing, where appropriate, VEGF to a final concentration of 25 ng/ml and the various peptides to final concentration of 25, 50, 100 and 200 μg/ml. After 72 hours incubation, the amount of live cells in each well was measured using the WST-1 assay (Roche). […]

[5] = tested on: VEGF-induced angiogenesis; test: VEGF-induced angiogenesis in Matrigel angio-reactors in FVB/N mice, FITC-dextran fluorescence; assay type: in vivo
Method: The peptides of the invention were also tested in an in vivo model of anti-angiogenic activity. This model analyzes VEGF-induced angiogenesis as it occurs in angio-reactors filled with Matrigel in wild-type FVB/N mice (Guedez et al., 2003, Am. J. Pathol. 162:1431-1439).
• Sterile, polyethene tubing (0.14 cm internal diameter) is cut to standard 1 cm lengths using a plexiglass template and single edge razor blade. These tubes are sealed at one end with nail-polish. Into the tubes, 20 μl of Matrigel (growth factor free obtained from BD Biosciences) containing 500 ng/ml VEGF with or without the indicated peptides is injected. After one hour of polymerization of the Matrigel at room temperature the angio-reactors are subcutaneously implanted into both flanks of wild-type FVB/N female mice (8-10 weeks old).
• After 10 days, angiogenesis in the angio-reactors is determined. Mice receive a 100 μl injection of 25 mg/ml of FITC-dextran in phosphate-buffered saline (PBS) via tail vein 20 minutes before collection of the angio-reactors. Quantification of vessel functionality is performed by removal of the Matrigel from the angio-reactors and the fluorescence is measured using a FLUOstar Galaxy microplate reader (excitation 485 nm, emission 520 nm, BMG Labtechnologies GmbH, Germany). The mean relative fluorescence±SD for 10 angio-reactors is determined and statistical analysis performed.

[6] = experiment 2, Bonferroni's Multiple Comparison Test

Compound | WST-1 induced colorimetric change measured at 440 nm, average ([4]; peptide 12.5 μg/ml, Table 2) | WST-1 induced colorimetric change measured at 440 nm, average ([4]; peptide 25 μg/ml, Table 2) | WST-1 induced colorimetric change measured at 440 nm, average ([4]; peptide 25 μg/ml, Table 3) | WST-1 induced colorimetric change measured at 440 nm, average ([4]; peptide 50 μg/ml, Table 2) | WST-1 induced colorimetric change measured at 440 nm, average ([4]; peptide 50 μg/ml, Table 3) | WST-1 induced colorimetric change measured at 440 nm, average ([4]; peptide 100 μg/ml, Table 2) | WST-1 induced colorimetric change measured at 440 nm, average ([4]; peptide 100 μg/ml, Table 3) | WST-1 induced colorimetric change measured at 440 nm, average ([4]; peptide 200 μg/ml, Table 3) | WST-1 induced colorimetric change measured at 440 nm ([4]; peptide 12.5 μg/ml, Table 2) | WST-1 induced colorimetric change measured at 440 nm ([4]; peptide 25 μg/ml, Table 2) | WST-1 induced colorimetric change measured at 440 nm ([4]; peptide 25 μg/ml, Table 3) | WST-1 induced colorimetric change measured at 440 nm ([4]; peptide 50 μg/ml, Table 2) | WST-1 induced colorimetric change measured at 440 nm ([4]; peptide 50 μg/ml, Table 3) | WST-1 induced colorimetric change measured at 440 nm ([4]; peptide 100 μg/ml, Table 2) | WST-1 induced colorimetric change measured at 440 nm ([4]; peptide 100 μg/ml, Table 3) | WST-1 induced colorimetric change measured at 440 nm ([4]; peptide 200 μg/ml, Table 3) | further results
CC(=O)O[C@@]12CO[C@@H]1C[C@H](O)[C@@]1(C)C(=O)[C@H](O)C3=C(C)[C@@H](OC(=O)[C@H](O)[C@@H](NC(=O)OC(C)(C)C)c4ccccc4)C[C@@](O)([C@@H](OC(=O)c4ccccc4)[C@H]21)C3(C)C [Docetaxel] |  |  |  |  |  |  |  |  |  |  |  |  |  |  |  |  | actual tumor weight, Average ([1]; group average): 1523 mg; caliper tumor weight, Average ([1]; group average): 1742.22 mg; actual tumor weight, Median ([1]; group median): 35 mg; caliper tumor weight, Median ([1]; group median): 75 mg; caliper tumor weight ([1]; individual mouse, caliper measurement converted by (W^2×L)/2, at termination): 87.5 mg and 32 mg (2×) and 48 mg and 75 mg (2×) and 288 mg and 126 mg (2×); actual tumor weight ([1]; individual mouse, excised tumor weighed): 54 mg and 10 mg and 18 mg and 26 mg and 35 mg and 225 mg and 25 mg and 82 mg and 46 mg
COc1cccc2c1C(=O)c1c(O)c3c(c(O)c1C2=O)C[C@@](O)(C(=O)CO)C[C@@H]3O[C@H]1C[C@H](N)[C@H](O)[C@H](C)O1 [Doxorubicin] |  |  |  |  |  |  |  |  |  |  |  |  |  |  |  |  | subcutaneous B16 melanoma tumor measurement, Average ([2]; Day 11): 213.41; subcutaneous B16 melanoma tumor measurement, Average ([2]; Day 13): 419.71; subcutaneous B16 melanoma tumor measurement, Average ([2]; Day 15): 744.61; subcutaneous B16 melanoma tumor measurement, Average ([2]; Day 16): 1261.33
CC(C)C[C@H](NC(=O)[C@H](CO)NC(=O)[C@@H](NC(=O)[C@H](C)N)[C@@H](C)O)C(=O)N1CCC[C@H]1C(=O)N1CCC[C@H]1C(=O)N[C@@H](Cc1c[nH]cn1)C(=O)N[C@@H](CO)C(=O)N[C@@H](CO)C(=O)N[C@@H](CCC(N)=O)C(=O)N[C@@H](CO)C(=O)N1CCC[C@H]1C(=O)O [ST100,038, ATSLPPHSSQSP] |  |  |  |  |  |  |  |  |  |  |  |  |  |  |  |  | peptide remaining (in words) ([3]; bovine, 18 h): none remained; metabolised at 4 h, 100 μM [3]: 50%; metabolised at 6 h, 100 μM [3]: 65%; metabolised at 18 h, 100 μM [3]: 25%; metabolised at 24 h, 100 μM [3]: 33%; metabolised at 48 h, 100 μM [3]: 60%; metabolised at 72 h, 100 μM [3]: 85%
LPPHSS (listed as Homo sapiens) [ST100,037] | 0.753 | 0.708 | 0.449 | 0.643 | 0.442 | 0.694 | 0.466 | 0.386 | 0.780 and 0.730 and 0.748 | 0.716 and 0.713 and 0.695 | 0.439 and 0.432 and 0.476 | 0.636 and 0.659 and 0.633 | 0.427 and 0.438 and 0.462 | 0.692 and 0.697 and 0.694 | 0.449 and 0.486 and 0.462 | 0.384 and 0.401 and 0.372 | 
LPPHSSQSP ((1)..(1) May be biotinylated; listed as Homo sapiens) [ST100,039] | 0.686 | 0.656 | 0.462 | 0.576 | 0.496 | 0.609 | 0.478 | 0.443 | 0.701 and 0.735 and 0.621 | 0.717 and 0.687 and 0.564 | 0.411 and 0.495 and 0.480 | 0.605 and 0.593 and 0.530 | 0.489 and 0.507 and 0.491 | 0.659 and 0.588 and 0.581 | 0.451 and 0.517 and 0.465 | 0.416 and 0.453 and 0.459 | 
SPWSSCSVTCGDGVITRIR (listed as Homo sapiens) [TSP616] |  |  |  |  |  |  |  |  |  |  |  |  |  |  |  |  | relative fluorescence (FITC-dextran) of angio-reactors, mean ([5]; experiment 1, group mean, VEGF + inhibitor 40 μM): 6111; Mean Diff., pbs vs inhibitor group [5, 6]: −0.5; Mean Diff., vegf vs inhibitor group [5, 6]: 2645; relative fluorescence of angio-reactors, average ([5]; experiment 2, group average): 635; relative fluorescence of angio-reactors, median ([5]; experiment 2, group median): 484
